This is an account of results in patent US20230280334A1, “CDC20 VARIANTS RESISTANT TO ANTI-MITOTIC DRUGS AND RELATED METHODS AND COMPOSITIONS” (Whitehead Institute for Biomedical Research, priority 2021, published 2023).

Assay [1] has as its system HeLa cells. Kind of assay: Time-lapse mitotic timing / mitotic arrest duration in HeLa cells. Format: cell-based, human. The note with it: for median arrest time / median mitotic arrest duration: HeLa; for median arrest time: 10 µM STLC (FIG. 6D); for median mitotic arrest duration: 10 µM STLC (FIG. 5E); for Mitotic time (min), HeLa: in the presence of 10 µM STLC with the indicated drug or RNAi treatment, mean ± standard deviation, two replicates. On the procedure:
(§1) Mitotic arrest duration in the presence of 10 µM STLC for control HeLa compared to the ΔM1 and M1-stop mutant cell lines with the indicated drug or RNAi treatment (see FIGS. 3F, 9D). Indicated is the mean mitotic duration ± standard deviation across two experimental replicates. Statistics from Mann-Whitney Test (**** = p < 0.0001, NS = not significant).
(§2) HeLa, hTERT-RPE1, U2OS, and A549 cell lines were cultured in Dulbecco’s modified Eagle medium (DMEM) supplemented with 10% fetal bovine serum (FBS), 100 U/mL penicillin and streptomycin, and 2 mM L-glutamine at 37° C. with 5% CO2. Doxycycline-inducible cell lines were cultured in medium containing FBS certified tetracycline free. Cas9 expression in inducible CRISPR/Cas9 cell lines was induced with 1 µg/ml doxycycline hyclate (##) at 24 hr interval for 2 days. Other drugs used on human cells were Nocodazole (##, 330 nM), S-trityl-L-cysteine (STLC, ##, 10 µM), Taxol (##, 1 µM), GSK923295 (CENP-E inhibitor, ##, 100 nM), proTAME (APC/Ci, ##, 12 µM), AZ-3146 (Mps1i, ##, 4 µM) unless concentration indicated otherwise in figure legend. Cells were enriched in mitosis with treatment with 330 nM nocodazole for 16-17 hrs. Cell lines were tested monthly for mycoplasma contamination.
(§3) Cells were later moved to CO2-independent media (##) before imaging at 37° C. Phase contrast images were acquired on a Nikon eclipse microscope equipped with a charge-coupled device (CCD) camera (Clara, Andor) or a CMOS camera (##) using a Plan Fluor 20X/0.5 NA objective at either 5 min or 10 min intervals. Time-lapse movies were analyzed using Fiji (ImageJ, NIH), ilastik (##) and CellProfiler (##). Image brightness and contrast was adjusted in Fiji, pixel-based classification was performed on individual images using ilastik and the resulting probability map images were processed by CellProfiler to identify and track mitotic cells. Each mitotic cell was then confirmed manually and the mitotic duration was determined as the time from cell rounding at mitotic entry to cell flattening after mitotic exit.

The subject of assay [2] is U2OS cells. Kind of assay: Time-lapse mitotic arrest duration in U2OS cells. The conditions noted are these: for median arrest time: U2OS, 10 µM STLC (FIG. 6D). Format: cell-based, human. On the procedure:
(§4) FIGS. 6A-6D show downstream in-frame Cdc20 translation initiation influences the mitotic slippage behavior of cancer cell lines. (FIG. 6A) Mitotic arrest duration of individual HeLa, U2OS, or A549 cells treated with 10 µM STLC alone or with a combination of STLC and siRNA treatment (either control siRNAs or Cdc20 siRNAs). Cells entering mitosis in the first 600 min (HeLa) or 700 min (U2OS/A549) of time lapse experiments were included in analyses. Open red circles indicate cells that exit mitosis. Closed black circles indicate cells that remained arrested in mitosis till the end of the time lapse. Blue circles indicate cells that die in mitosis. Bars correspond to median. Indicated are the median mitotic duration times across two experimental replicates. (FIG. 6B) Western blot of mitotically-enriched U2OS cells expressing endogenous Cdc20 protein or upon Cdc20 replacement with either wild-type CDC20 cDNA or a CDC20 M43L M88L mutant construct. Cells were enriched in mitosis with 10 µM STLC for 18 hrs. Cdc20 protein was detected using antibodies recognizing the human Cdc20 C-terminus (aa 450-499). β-actin was used as loading control. (FIG. 6C) Western blot similar to (B) for A549 cells except that ectopic constructs were induced with 50 ng/ml doxycycline. (FIG. 6D) Top, schematic illustrating the Cdc20 replacement strategy with siRNA-resistant 5′ UTR-CDC20 cDNA constructs from a doxycycline-inducible promoter combined with depletion of endogenous Cdc20 protein by siRNA treatment. Cells were treated with 10 ng/ml (HeLa/U2OS) or 50 ng/ml (A549) doxycycline. […]
(§5) Cells were later moved to CO2-independent media (##) before imaging at 37° C. […] Time-lapse movies were analyzed using Fiji (ImageJ, NIH), ilastik (##) and CellProfiler (##). […] Each mitotic cell was then confirmed manually and the mitotic duration was determined as the time from cell rounding at mitotic entry to cell flattening after mitotic exit.

The test system of assay [3] is HEC-6 cells. Kind of assay: Mitotic arrest duration in HEC-6 cells. Format: cell-based. The conditions noted are these: 10 µM STLC (FIG. 14C). The text has this: (FIG. 14B) HEC-6 cells express reduced levels of full-length Cdc20 protein and thus higher relative levels of the alternative Cdc20 isoforms, compared to control HeLa cells.
In assay [4] the test system is A549 cells. Kind of assay: Time-lapse mitotic arrest duration in A549 cells. Format: cell-based, human. The conditions noted are these: for median arrest time: 10 µM STLC (FIG. 6D). The procedure: as §4, §5
For assay [5], the system named is M1-stop mutant cell line (HeLa lacking full-length Cdc20). Kind of assay: Time-lapse mitotic arrest duration in M1-stop mutant cell line. Format: cell-based, human. The note with it: for mitotic arrest / mitotic exit behaviour in the presence of STLC: M1-stop cells, 10 µM STLC alone or with the named agent; for Mitotic time (min), M1-stop: in the presence of 10 µM STLC with the indicated drug or RNAi treatment, mean ± standard deviation, two replicates. On the procedure: as §1, §2
(§6) Stable clonal cell lines lacking the canonical full-length Cdc20 protein were obtained by transfecting HeLa cells with pX330-based plasmids [Cong 2013] expressing spCas9 and either the sgM1 (for ΔM1 mutant) or the sgExon1 guide RNA (for M1-stop mutant). pX330-based plasmids were transfected using Xtremegene-9 (##) together with a mCherry-expressing plasmid and mCherry-positive cells were fluorescence activated cell-sorted into 96 well plates with one cell per well. Clones were screened for successful gene editing and the CDC20 allele sequence information was determined by next-generation sequencing (Genewiz Amplicon-EZ).
as §3

Assay [6] relates to ΔM1 mutant cell line (HeLa lacking the canonical M1 ATG start codon of CDC20). Kind of assay: Time-lapse mitotic arrest duration in ΔM1 mutant cell line. Format: cell-based, human. The conditions noted are these: for Mitotic time (min), ΔM1: in the presence of 10 µM STLC with the indicated drug or RNAi treatment, mean ± standard deviation, two replicates; for mitotic arrest / mitotic exit behaviour in the presence of STLC: ΔM1 cells, 10 µM STLC alone or with the named agent. On the procedure:
as §1, §2, §6, §3

Where [7] appears, read: Cdc20 replacement with Cdc20 M43L M88L.
Setting [8] is: Cdc20 replacement with wild-type CDC20 construct.

Bounds are passed on as bounds.

For the molecule `N[C@@H](CSC(c1ccccc1)(c1ccccc1)c1ccccc1)C(=O)O` [STLC, S-trityl-L-cysteine], the median arrest time amounted to 2110 min in assay [1] (setting [7]); 1755 min in assay [1] (setting [8]); 1100 min in assay [2] (setting [7]); 690 min in assay [2] (setting [8]); 1140 min in assay [4] (A549, Cdc20 replacement with Cdc20 M43L M88L); 920 min in assay [4] (A549, Cdc20 replacement with wild-type CDC20 construct). The “median mitotic arrest duration” value in assay [1] (endogenous Cdc20 replaced with altATGmutx2 mutant construct) stood at 1370 min; in assay [1] (endogenous Cdc20 replaced with wild-type siRNA-resistant CDC20 construct), 1810 min. Besides, the “median mitotic arrest time” value in assay [1] (STLC-treated HeLa, 10 µM STLC alone (FIG. 6A)) came to 1645 min; in assay [2] (STLC-treated U2OS, 10 µM STLC alone (FIG. 6A)), 805 min; in assay [4] (STLC-treated A549, 10 µM STLC alone (FIG. 6A)), 780 min. Besides, in assay [1] (control HeLa, 10 µM STLC, time-lapse (FIG. 3A)), the “time arrested in mitosis after mitotic entry” value is greater than 10 h. Also, the “Mitotic time (min), HeLa” value is given as 780±203 (n=103) min in assay [1] (listed as STLC/DMSO) and 805±168 (n=122) min in assay [1] (listed as STLC/siCtrl). Moreover, in assay [3], the “mitotic arrest duration compared to control HeLa cells” value is recorded as “reduced mitotic arrest duration compared to control HeLa cells”. Moreover, the “mitotic arrest / mitotic exit behaviour in the presence of STLC” value (from here on “mitotic arrest / mitotic exit behaviour”) in assay [5] and in assay [6] was “exit mitosis within a few hours” each time. Also, the “Mitotic time (min), M1-stop” value in assay [5] (listed as STLC/DMSO) is reported as 67±12 (n=85) min; in assay [5] (listed as STLC/siCtrl), 70±18 (n=90) min. The results for the “Mitotic time (min), ΔM1” value in assay [6] (listed as STLC/DMSO) and in assay [6] (listed as STLC/siCtrl) were 60±24 (n=97) min and 65±37 (n=88) min, respectively.

Turning to `COC(=O)[C@H](CCCN=C(NC(=O)OCOC(=O)Cc1ccccc1)NC(=O)OCOC(=O)Cc1ccccc1)NS(=O)(=O)c1ccc(C)cc1` [proTAME], the “mitotic arrest / mitotic exit behaviour” value in assay [5] and in assay [6] was “suppressed the premature mitotic exit” in each case.

Consider AZ3146, for which the “mitotic arrest / mitotic exit behaviour” value was “further reduce the arrest” in assay [5] and “not exacerbated further” in assay [6].
